Earlier results on 18 compounds are cited in paper PMC12434536, “Radiosynthesis and Preclinical Evaluation of a Carbon-11 Labeled Phosphodiesterase 7 Inhibitor for PET Neuroimaging” (ACS Medicinal Chemistry Letters, 2025).

Each structure is given as a SMILES string. Read-outs that look alike come from different tables or passages of the source.

Data set [1] concerns PDE7. The following applies: Figure 1, literature compounds; cited from earlier work.
Data set [2] has as its system PDE4. As to conditions: Figure 1, literature compounds; cited from earlier work.
The subject of data set [3] is PDE7A. The following applies: Figure 1, literature compounds; cited from earlier work.
The subject of data set [4] is PDE4B. As to conditions: Figure 1, literature compounds; cited from earlier work.
The subject of data set [5] is PDE7A1. As to conditions: Figure 1, literature compounds; cited from earlier work.
The test system of data set [6] is PDE7. As to conditions: cited from earlier work.

By IC50 is commonly meant the point on the concentration scale where inhibition reaches its midpoint. For `O=C1NS(=O)(=O)N(Cc2ccc(Cl)c(Cl)c2)c2ccccc21` [Compound 1], the IC50 in data set [1] is 8000 nM; in data set [2], 19000 nM.
For `COc1ccc(C(=O)CN2c3c(sc4ccccc34)C(=O)NS2(=O)=O)cc1` [Compound 2], in data set [2], the IC50 is 30000 nM.
As for `Nc1nc2c(nc(Br)n2C2CCCc3cccc(Br)c32)c(=O)[nH]1` (stereo not drawn) [Compound 3], the IC50 in data set [1] was 1210 nM.
For the compound `CCOC(=O)c1sc(Nc2nc(NCc3ccc(S(N)(=O)=O)cc3)c3c(ncn3CC)n2)nc1C` [Compound 4], the IC50 in data set [1] is 11 nM.
On to `CCCCOc1nc2c(c(=O)n(C)c(=O)n2C)n1CCCC(=O)Nc1cc(C(C)(C)C)ccc1O` [Compound 5], for which the IC50 in data set [3] is 5070 nM; in data set [4] it was 5430 nM.
`CCn1c(NC(C)C)nc2c(C3CCN(C(C)=O)C3)csc2c1=O` (stereo not drawn) [Compound 6]: the IC50 in data set [3] is 15 nM; in data set [4] it was 1900 nM.
On to `CCOC(=O)c1sc(Nc2nc(N3CCNCC3)c3c(n2)N(Cc2cc(OC)c(OC)c(OC)c2)CC3)nc1C` [Compound 7], for which the half-maximal inhibitory concentration (IC50) in data set [1] was 6 nM.
In the case of `O=[N+]([O-])c1ccc(Sc2ccncc2)c(Cl)c1` [Compound 10], the IC50 in data set [1] was 180 nM.
`COc1cc(COC(=O)c2ccc(-c3ccccc3)o2)cc(OC)c1OC` [Compound 11]: the IC50 in data set [5] is 5100 nM.
Turning to `O=c1[nH]c(=S)[nH]c2cc(F)c(F)cc12` [Compound 15], the IC50 in data set [3] was 74 nM.
For the compound `Cn1c(-c2ccoc2)nc(=O)c2ccccc21` [Compound 16], in data set [3], the 50% inhibitory concentration (IC50) was 96 nM.
For the compound `O=C1Nc2ccc(Cl)c(Cl)c2C2(CCCCC2)N1` [Compound 18], the IC50 in data set [1] was 14 nM.
`O=C1Nc2c(Br)cccc2C2(CCCCC2)N1` [Compound 19]: the IC50 in data set [1] was 70 nM.
Consider `COc1ccc(-c2cc3c(n2-c2ccc(S(=O)(=O)Nc4nc(C)cc(C)n4)cc2)CCC(N2CCN(C)CC2)C3)cc1C` (stereo not drawn) [Compound 20], for which the IC50 in data set [3] was 14 nM; in data set [2] it was 630 nM.
For the compound `COc1ccc(C2=NN(C3CCN(C(=O)N4CCOCC4)CC3)C(=O)C3CC=CCC23)cc1Cl` (stereo not drawn) [Compound 21], the IC50 in data set [1] is 23 nM; in data set [2], 2.3 nM.
As to `COc1ccccc1N1CCN(CCCC(=O)Nc2ccc(C(C)(C)C)cc2)CC1` [Compound 22], the IC50 in data set [3] is 27000 nM; in data set [4] it was 96000 nM.
As for `O=C1Nc2c(Cl)ccc(OCC[18F])c2C2(CCCCC2)N1` [[^18F]-MICA-003], the “affinity to PDE7” value in data set [6] (ref Thomae et al.) is 17 nM.
On to `O=C1Nc2c(Cl)ccc(Oc3c(F)cccc3C(=O)N3CC([18F])C3)c2C2(CCCCC2)N1` [[^18F]-P7-2302], for which, in data set [6] (earlier 18F-isotopologue of the same spiro quinazoline structure), the “affinity to PDE7” value is 0.18 nM.
